Reference: PMC7229567, “Comparative Pharmacokinetics of Geniposidic Acid, Genipin-1-β-Gentiobioside, Geniposide, Genipin, and Crocetin in Rats after Oral Administration of Crude Gardeniae Fructus and Its Three Processed Products Using LC-MS/MS” (Evidence-based Complementary and Alternative Medicine : eCAM, 2020)
Read-outs that look alike come from different tables or passages of the source.

How the values were obtained:
[1] = Stability of the analytes in rat plasma QC samples under storage conditions; type: in vitro ADME; conditions: for Freeze-thaw cycles Remain: three freeze-thaw cycles
Protocol: Quality control (QC) samples containing geniposidic acid, geniposide, genipin-1-β-gentiobioside, genipin, and crocetin were prepared at LLOQ (10 ng/mL), low (30 ng/mL), medium (300 ng/mL), and high concentrations (3000 ng/mL), spiking with appropriate standard solutions with blank plasma to establish calibration curve and method validation. The samples were prepared by the same procedures for plasma samples as described below. The stability of 5 components in the plasma was obtained by evaluating QC samples at four concentration levels with three replicates in different conditions. The QC samples were kept at room temperature for 12 h to determine the short-term stability. Freeze-thaws stability was tested after three freeze-thaw (−80°C at room temperature) on three consecutive days. Long-term stability was tested by evaluating QC samples stored at −80°C for one month. The stability of the five components in rat plasma was determined by evaluating QC samples stored at different temperature and timing conditions. All the components were stable in the autosampler for 24 h, after three freeze-thaw cycles and at a month at −80°C.

[2] = Pharmacokinetics in rat plasma after oral administration of CGF, SGF, GCGF and GIGF extracts (LC-MS/MS); conditions: for Cmax / half-life / Tmax: male, Sprague-Dawley, rat, plasma, po, 0.75 mL/kg; for Cmax: C max; for Cmax / Tmax / C max / T 1/2 / T max / AUC(0–t24) ratio relative to CGF: rat plasma; for Cmax / half-life / Tmax / C max / T 1/2 / T max: n = 6, mean ± SD; for half-life: T 1/2, rat plasma; for Tmax: T max; for AUC(0–t24) ratio relative to CGF: oral
Text: (§1) The LC-ESI-MS/MS system is composed of an Agilent 1200 series LC system (Agilent Technologies, USA) including a binary pump, a vacuum degasser unit, an autosampler, and an API 3200 triple quadrupole mass Spectrometer with an ESI source (Concord, Ontario, Canada). Data was acquired by Analyst 1.4.2 software (AB MDS Sciex).
(§2) The Agilent Eclipse plus C18 (4.6 × 100 mm, 1.8 μm) column with a guard column was used to separate multiple ingredients. The mobile phases were methanol (A) and water (B) with a gradient elution of 3–36% A at 0–3 min, 36–36% A at 3–15 min, 36–97% A at 15–16 min, and 97–97% A at 16–26 min, then back from 97% to 3% balanced for 10 min. The flow rate was set at 0.3 mL/min and the column temperature was set at 30°C. The injection volume was 5 μL.
(§3) The detection was operated in Multiple Reaction Monitoring (MRM) mode. The source parameters were as follows: curtain gas, collision gas, ion spray voltage, temperature, ion source gas 1, and ion source gas 2 were set at 20 psi, 5 psi, 5500 V, 450°C, 40 psi, and 40 psi, respectively. Nitrogen was the only gas used in the experiment.
(§4) A total of 24 male Sprague-Dawley rats (weight: 220–250 g) were obtained from animal center of Tianjin University of Traditional Chinese Medicine (Tianjin, China). Those rats were randomly divided into four groups (CGF, SGF, GCGF, and GIGF groups) and were housed in an environmentally controlled room (temperature 20–25°C, humidity 60 ± 5%). The rats were allowed free accessibility to food and water in the first week. They were fasted for 12 h before the experiment with water taken freely. The animal experiments were according to the Guidelines for the Care and Use of Laboratory Animals and were approved by the Animal Ethics Committee of Tianjin University of Traditional Chinese Medicine. The rats were randomly divided into four groups. Six rats in each group were separately given single dose of 0.75 mL/kg (0.9 g·kg herbal medicine) extract solution of four kinds of GFs vial oral administration. Blood samples (about 300 μL) were collected at 0, 0.08, 0.25, 0.5, 1, 2, 4, 6, 8, 10, 12, 14, and 24 h. The blood samples were collected in heparinized tubes and immediately centrifuged at 6000 rpm for 10 min at 4°C. The plasma samples were stored at −80°C until analysis.
(§5) The plasma sample (100 μL) was spiked with 20 μL IS working solution and 10 μL formic acid in an Eppendorf tube. Samples were vortex for 30 s, and then 1 mL acetonitrile was added to precipitate protein. Then samples were vortexed for 2 min and the tubes were centrifuged at 14000 rpm for 10 min. The upper organic phase was transferred into a new tube and evaporated to dryness under a flow of nitrogen gas. The residue was reconstituted with 50% methanol 100 μL. After centrifuging at 14000 rpm for 10 min, the supernatant was transferred into an autosampler vial and a volume of 5 μL was injected into the HPLC-ESI-MS/MS for analysis.
(§6) The pharmacokinetic parameters were calculated using a Drug and Statistics 1.0 (DAS 1.0) software (Medical College of Wannan, China). The pharmacokinetic parameters included time of maximum concentration (Tmax), maximum plasma concentration (Cmax), elimination half-life (T1/2), and area under concentrations curve (AUC0–t and AUC0–∞). All values were expressed as mean ± SD. A paired t test was used to test the difference among these groups.

[3] = in vivo, po
Text: as §1, §2, §3, §4, §5, §6

[4] = single oral dose of CGF extract 0.75 mL/kg
[5] = single oral dose of GCGF extract 0.75 mL/kg
[6] = single oral dose of GIGF extract 0.75 mL/kg
[7] = single oral dose of SGF extract 0.75 mL/kg

Row | Structure (SMILES) | At −80°C for a month Remain ([1]; 10 ng/mL) [%] | Autosampler for 24 h Remain ([1]; 10 ng/mL) [%] | Freeze-thaw cycles Remain ([1]; 10 ng/mL) [%] | At −80°C for a month Remain ([1]; 30 ng/mL) [%] | Autosampler for 24 h Remain ([1]; 30 ng/mL) [%] | Freeze-thaw cycles Remain ([1]; 30 ng/mL) [%] | At −80°C for a month Remain ([1]; 300 ng/mL) [%] | Autosampler for 24 h Remain ([1]; 300 ng/mL) [%] | Freeze-thaw cycles Remain ([1]; 300 ng/mL) [%] | At −80°C for a month Remain ([1]; 3000 ng/mL) [%] | Autosampler for 24 h Remain ([1]; 3000 ng/mL) [%] | Freeze-thaw cycles Remain ([1]; 3000 ng/mL) [%] | Cmax [2, 4] [ng/mL] | Cmax [2, 5] [ng/mL] | Cmax [2, 7] [ng/mL] | half-life [2, 4] [h] | half-life [2, 7] [h] | Tmax [2, 4] [h] | Tmax [2, 5] [h] | Tmax [2, 7] [h] | other results
1 | CC(/C=C/C=C(\C)C(=O)O)=C\C=C\C=C(C)\C=C\C=C(/C)C(=O)O [Crocetin] | 98.4 | 97.9 | 102 | 101 | 99.9 | 95.3 | 105 | 96.3 | 98.6 | 103 | 98.9 | 106 | 165 ± 52.9 | 163 ± 76.4 | 153 ± 81.9 | 41.6 ± 57.6 | 56.2 ± 43 | 7.3 ± 3.93 | 6.43 ± 5.02 | 6.61 ± 4.05 | Cmax [2, 6]: 91.2 ± 35.6 ng/mL; half-life [2, 5]: 12.8 ± 6.64 h; half-life [2, 6]: 31.8 ± 29.3 h; Tmax [2, 6]: 1.29 ± 2.31 h
2 | COC(=O)C1=CO[C@@H](O[C@@H]2O[C@H](CO[C@@H]3O[C@H](CO)[C@@H](O)[C@H](O)[C@H]3O)[C@@H](O)[C@H](O)[C@H]2O)[C@@H]2C(CO)=CC[C@H]12 [Genipin-1-β-gentiobioside] | 95.8 | 99.3 | 104 | 96.3 | 100 | 105 | 95.1 | 101 | 101 | 95.1 | 90.7 | 103 |  |  |  |  |  |  |  |  | C max [2, 4]: 149.90 ± 132.07 ng/mL; T 1/2 [2, 4]: 0.72 ± 0.25 h; T max [2, 4]: 0.55 ± 0.33 h; C max [2, 5]: 102.92 ± 58.15 ng/mL; T 1/2 [2, 5]: 0.78 ± 0.32 h; T max [2, 5]: 0.78 ± 0.20 h; C max [2, 6]: 62.94 ± 16.81 ng/mL; T 1/2 [2, 6]: 0.91 ± 0.36 h; T max [2, 6]: 1.05 ± 0.37^∗# h; C max [2, 7]: 79.08 ± 39.47 ng/mL; T 1/2 [2, 7]: 0.61 ± 0.18 h; T max [2, 7]: 0.61 ± 0.31 h
3 | COC(=O)C1=CO[C@@H](O[C@@H]2O[C@H](CO)[C@@H](O)[C@H](O)[C@H]2O)[C@@H]2C(CO)=CC[C@H]12 [Geniposide] | 99.2 | 102 | 97.5 | 98.4 | 95.1 | 92.8 | 94.8 | 96.3 | 93.1 | 92.8 | 91.6 | 95.0 | 1070 ± 598 | 581 ± 241 | 455 ± 160 | 3.21 ± 2.31 | 1.61 ± 0.63 | 1.54 ± 1.3 | 0.86 ± 0.13 | 0.89 ± 0.72 | Cmax [2, 6]: 212 ± 109 ng/mL; half-life [2, 6]: 1.08 ± 0.45 h; Tmax [2, 6]: 1.3 ± 0.48 h; T 1/2 [2, 5]: 1.44 ± 0.53^∗ h
4 | CC(/C=C/C=C(\C)C(=O)O[C@@H]1O[C@H](CO)[C@@H](O)[C@H](O)[C@H]1O)=C\C=C\C=C(C)\C=C\C=C(/C)C(=O)O[C@@H]1O[C@H](CO[C@@H]2O[C@H](CO)[C@@H](O)[C@H](O)[C@H]2O)[C@@H](O)[C@H](O)[C@H]1O [crocin II] |  |  |  |  |  |  |  |  |  |  |  |  |  |  |  |  |  |  |  |  | Detection in rat plasma ([2]; plasma samples after oral administration of GF extracts): not detected
5 | CC(/C=C/C=C(\C)C(=O)O[C@@H]1O[C@H](CO[C@@H]2O[C@H](CO)[C@@H](O)[C@H](O)[C@H]2O)[C@@H](O)[C@H](O)[C@H]1O)=C\C=C\C=C(C)\C=C\C=C(/C)C(=O)O[C@@H]1O[C@H](CO[C@@H]2O[C@H](CO)[C@@H](O)[C@H](O)[C@H]2O)[C@@H](O)[C@H](O)[C@H]1O [crocin I] |  |  |  |  |  |  |  |  |  |  |  |  |  |  |  |  |  |  |  |  | Detection in rat plasma [3]: not detected

More lines, main results first:

Row | At −80°C for a month Remain ([1]; 10 ng/mL) [%] | Autosampler for 24 h Remain ([1]; 10 ng/mL) [%] | Freeze-thaw cycles Remain ([1]; 10 ng/mL) [%] | At −80°C for a month Remain ([1]; 30 ng/mL) [%] | Autosampler for 24 h Remain ([1]; 30 ng/mL) [%] | Freeze-thaw cycles Remain ([1]; 30 ng/mL) [%] | At −80°C for a month Remain ([1]; 300 ng/mL) [%] | Autosampler for 24 h Remain ([1]; 300 ng/mL) [%] | Freeze-thaw cycles Remain ([1]; 300 ng/mL) [%] | At −80°C for a month Remain ([1]; 3000 ng/mL) [%] | Autosampler for 24 h Remain ([1]; 3000 ng/mL) [%] | Freeze-thaw cycles Remain ([1]; 3000 ng/mL) [%] | Cmax [2, 4] [ng/mL] | Cmax [2, 5] [ng/mL] | Cmax [2, 7] [ng/mL] | half-life [2, 4] [h] | half-life [2, 7] [h] | Tmax [2, 4] [h] | Tmax [2, 5] [h] | Tmax [2, 7] [h] | Structure (SMILES) | other results
6 | 108 | 95.4 |  | 103 | 104 | 95.3 | 105 | 90.6 | 95.9 | 101 | 92.6 | 100 | 76.4 ± 40.9 | 68.5 ± 19.4 | 98 ± 41.8 | 3.42 ± 1.94 | 1.39 ± 0.88 | 1.11 ± 0.4 | 1.1 ± 0.52 | 1 ± 0.55 | COC(=O)C1=CO[C@@H](O)[C@@H]2C(CO)=CC[C@H]12 [Genipin] | Detection in rat plasma ([2]; after administration of the GIGF extract, LLOQ 10 ng/mL): not detected; half-life [2, 5]: 1.39 ± 0.98 h
7 | 107 | 94.7 | 96.3 | 98.0 | 96.4 | 101 | 106 | 96.4 | 107 | 99.9 | 96.7 | 108 | 1020 ± 450 | 670 ± 432 | 398 ± 108 | 2.52 ± 0.64 | 2.93 ± 3.45 | 3.33 ± 1.63 | 3.33 ± 3.43 | 1.78 ± 0.44 | O=C(O)C1=CO[C@@H](O[C@@H]2O[C@H](CO)[C@@H](O)[C@H](O)[C@H]2O)[C@@H]2C(CO)=CC[C@H]12 [Geniposidic acid] | AUC(0–t24) ratio relative to CGF ([2]; GCGF vs CGF (CGF = 1)): 0.39; AUC(0–t24) ratio relative to CGF ([2]; GIGF vs CGF (CGF = 1)): 0.15; AUC(0–t24) ratio relative to CGF ([2]; SGF vs CGF (CGF = 1)): 0.22; Cmax [2, 6]: 272 ± 164 ng/mL; half-life [2, 5]: 1.72 ± 0.69 h; half-life [2, 6]: 1.5 ± 0.42 h; Tmax [2, 6]: 2.4 ± 1.26 h
